Reference: BindingDB's records for patent US20240351997 (Shanghai Qilu Pharmaceutical Research and Development Centre, 2024)

Target: T1, Protein mono-ADP-ribosyltransferase TIPARP (Homo sapiens, UniProt Q7Z3E1)
T1 sequence (Q7Z3E1 whole entry): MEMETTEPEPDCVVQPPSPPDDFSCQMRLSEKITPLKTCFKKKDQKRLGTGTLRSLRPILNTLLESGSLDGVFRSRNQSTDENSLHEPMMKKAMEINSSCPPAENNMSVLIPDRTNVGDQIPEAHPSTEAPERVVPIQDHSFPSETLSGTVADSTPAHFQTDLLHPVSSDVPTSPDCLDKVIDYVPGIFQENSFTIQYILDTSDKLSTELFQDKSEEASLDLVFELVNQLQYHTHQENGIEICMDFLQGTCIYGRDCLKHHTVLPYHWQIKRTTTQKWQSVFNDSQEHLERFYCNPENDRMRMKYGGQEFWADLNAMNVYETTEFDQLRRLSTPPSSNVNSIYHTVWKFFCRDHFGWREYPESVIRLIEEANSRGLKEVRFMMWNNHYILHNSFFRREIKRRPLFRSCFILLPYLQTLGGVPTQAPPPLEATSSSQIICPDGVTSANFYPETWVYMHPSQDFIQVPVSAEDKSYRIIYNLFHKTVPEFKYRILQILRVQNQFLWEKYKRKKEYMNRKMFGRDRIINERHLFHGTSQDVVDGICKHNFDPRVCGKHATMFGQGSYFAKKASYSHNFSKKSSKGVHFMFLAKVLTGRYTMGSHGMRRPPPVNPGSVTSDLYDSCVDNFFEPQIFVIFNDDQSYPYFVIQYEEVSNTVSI
Assay: In Vitro Enzymology Experiment of PARP2, 3, 5A, 5B, 7, 12, and 15
Method: 1. Preparation of 384-well histone-coated plate: 25 μL of histone solution was added to each well, and the plate was incubated overnight at 4° C.2. Preparation of PBST buffer, blocking buffer, and assay buffer3. The 384-well histone-coated plate was washed three times with PBST buffer. The plate was blocked by 50 μL of blocking buffer for 1 hour at room temperature. The plate was then washed three times with PBST buffer.4. Compound preparation:2000× compound was prepared in a 96-well source plate. 50 nL of the compound was transferred from the source plate to a 96-well intermediate plate, and 39.95 μL of assay buffer was added to each well. The plate was shaken well and centrifuged at 1000 rpm for 1 minute.5 μL of compound DMSO solution was transferred to each well.5. […] Detection:25 μL of Stre-HRP was added.The plate was incubated at room temperature for 1 hour and washed three times with PBS buffer.25 μL of QuantaRed Enhancer mix was added. The plate was incubated for 10 minutes.2.5 μL of QuantaRed Stop Solution was added to terminate the peroxidase reaction, and the plate was shaken for 10 to 30 seconds.7. […] Data processingUsing equation (1) to fit the data in Excel to obtain inhibition valuesinh%=(Max-Signal)/(Max-Min)*100Equation(1)Using equation (2) to fit the data in XL-Fit to obtain IC50 valuesY=Bottom+(Top-Bottom)/(1+(IC5 0/X)*HillSlopeEquation(2)Y is the percentage of inhibition, and X is the compound concentration.

Structure (SMILES)	IC50 [nM]
Nc1cc(C(F)(F)F)cnc1N1CCN(C(=O)OCCc2c[nH]c(=O)c(C(F)(F)F)c2)CC1 [US20240351997, Example 131]	1.3
O=C(Oc1cccc(-c2c[nH]c(=O)c(C(F)(F)F)c2)c1)N1CCN(c2ncc(C(F)(F)F)cn2)[C@@H](CO)C1 [US20240351997, Example 141]	0.85
O=C(Oc1cccc(-c2c[nH]c(=O)c(C(F)(F)F)c2)c1)N1CCN(c2ncc(C(F)(F)F)cn2)[C@@H](CO)C1 [US20240351997, Example 143]	0.61
C[C@@H]1CN(c2ncc(C3CC3)cn2)[C@H](C)CN1C(=O)OCCc1c[nH]c(=O)c(C(F)(F)F)c1 [US20240351997, Example 180]	1
Cc1cnc(N2C[C@@H](C)N(C(=O)OCCc3c[nH]c(=O)c(C(F)(F)F)c3)C[C@H]2C)nc1 [US20240351997, Example 167]	1.5
O=C(Oc1cccc(-c2c[nH]c(=O)c(C(F)(F)F)c2)c1)N1CCN(c2ncc(C(F)(F)F)cn2)[C@H](CO)C1 [US20240351997, Example 142]	0.74
